The values below come from US5795861A, “Methods for regulating gastrointestinal motility” (Amylin Pharmaceuticals Inc., priority 1995, dated 1998).

Data set [1] is described as follows: plasma AC-0137 levels after IV bolus or infusion (clinical study). The format is in vivo, human. To be noted: after IV bolus injection. The source says: Subjects in each dose group underwent a two period crossover to examine intravenous (IV) bolus versus IV infusion of drug. Each period consisted of a three-day confinement to the study unit. On each occasion, the initial day of confinement was allowed for acclimatization to the study unit. The second and third days constituted an imbedded crossover of placebo versus active medication. […] An imbedded cross-over design for the administration of drug and placebo on Days 2 and 3 of this admission was employed in a manner similar to that used during the first admission. The six subjects assigned to the placebo group received placebo on each of the study days.
On study days, intravenous catheters were inserted at least 30 minutes prior to the start of the study. 15 minutes before dosing, the subjects took their usual insulin dose via subcutaneous injection. […] The infusion rate was designed to administer the assigned amount of drug over the two hour period. Thirty minutes later, the subjects ingested their normal breakfasts.

The nature of data set [2]: solubility and stability compared to human amylin. The format is physicochemical.

`CC[C@H](C)[C@H](NC(=O)[C@@H]1CCCN1C(=O)CNC(=O)[C@H](Cc1ccccc1)NC(=O)[C@H](CC(N)=O)NC(=O)[C@H](CC(N)=O)NC(=O)[C@H](CO)NC(=O)[C@H](CO)NC(=O)[C@H](Cc1c[nH]cn1)NC(=O)[C@@H](NC(=O)[C@H](CC(C)C)NC(=O)[C@H](Cc1ccccc1)NC(=O)[C@H](CC(N)=O)NC(=O)[C@H](C)NC(=O)[C@H](CC(C)C)NC(=O)[C@H](CCCNC(=N)N)NC(=O)[C@H](CCC(N)=O)NC(=O)[C@@H](NC(=O)[C@H](C)NC(=O)[C@@H]1CSSC[C@H](NC(=O)[C@@H](N)CCCCN)C(=O)N[C@@H](CC(N)=O)C(=O)N[C@@H]([C@@H](C)O)C(=O)N[C@@H](C)C(=O)N[C@@H]([C@@H](C)O)C(=O)N1)[C@@H](C)O)C(C)C)C(=O)N[C@@H](CC(C)C)C(=O)N1CCC[C@H]1C(=O)N1CCC[C@H]1C(=O)N[C@H](C(=O)N[C@@H](CC(N)=O)C(=O)N[C@H](C(=O)NCC(=O)N[C@@H](CO)C(=O)N[C@@H](CC(N)=O)C(=O)N[C@H](C(=O)N[C@@H](Cc1ccc(O)cc1)C(N)=O)[C@@H](C)O)C(C)C)[C@@H](C)O` [AC-0137, ^25,28,29 Pro-h-amylin]: the “disappearance of drug from the plasma compartment” value in data set [1] is given as “apparent first-order kinetics”. In addition, the “solubility and stability characteristics” value in data set [2] is “more desirable solubility and stability characteristics”.
